Experimental data from patent US9487520B2, “Coelenterazine derivatives and methods of using same” (PROMEGA CORPORATION, priority 2010, dated 2016).

What was measured:
[1] = test system: caspase-3; assay: Caspase 3 assay using Oplophorus luciferase variant 9B8 opt; assay type: biochemical; details: 23.5 μM substrate, OgLuc 9B8 opt lysate, no caspase-3
Protocol: (§1) An Oplophorus luciferase (OgLuc) variant, 9B8 opt, was used in a bioluminescent assay using a pro-coelenterazine substrate comprising the DEVD caspase-3 cleavage sequence. Purified caspase-3 enzyme was mixed with an E. coli lysate sample expressing the variant 9B8 opt, which was purified using the HALOLINK™ Resin (Promega Corp.) according to manufacturer's instructions, and diluted 10-fold in a buffer containing 100 mM MES pH 6.0, 1 mM CDTA, 150 mM KCl, 35 mM thiourea, 2 mM DTT, 0.25% TERGITOL® NP-9 (v/v), 0.025% MAZU®, with or without 23.5 μM z-DEVD-coelenterazine-h in 100 mM HEPES pH 7.5. The caspase-3 enzyme was incubated with the lysate sample for 3 hrs at room temperature, and luminescence detected on a Turner MODULUS™ luminometer at various time points. A sample containing only bacterial lysate and a sample containing only caspase-3 were used as controls. Three replicates were used.

[2] = biological target: T1, caspase-3 (Homo sapiens, UniProt P42574); assay: as above; assay type: biochemical; details: 23.5 μM substrate, OgLuc 9B8 opt lysate, with caspase-3
T1 sequence (P42574 29-175 limits assumed): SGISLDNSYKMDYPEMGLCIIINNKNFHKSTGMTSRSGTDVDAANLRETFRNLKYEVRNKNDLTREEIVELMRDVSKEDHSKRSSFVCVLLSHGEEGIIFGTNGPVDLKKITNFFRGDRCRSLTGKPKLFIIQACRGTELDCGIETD
T1 sequence (P42574 176-277 limits assumed): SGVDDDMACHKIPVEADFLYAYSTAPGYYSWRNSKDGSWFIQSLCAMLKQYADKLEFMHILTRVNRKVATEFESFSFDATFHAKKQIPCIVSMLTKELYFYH
Protocol: as §1

[3] = biological target: T1, caspase-3; assay: Caspase-3 detection with z-DEVD-coelenterazine-h and Renilla luciferase; assay type: biochemical; details: 25 μM substrate, 25 U/ml caspase-3, 3.25 ug/ml Renilla luciferase, measured over 110 minutes
Protocol: Compound 21 (50 μM) was combined with Renilla luciferase (6.5 μg/ml, Renilla-GST fusion) in 50 mM HEPES buffer pH 7.2, 2 mM DTT, and 0.5% CHAPS and incubated for 20 minutes to remove any free coelenterazine derivatives that may be substrates for Renilla luciferase. Purified caspase-3 enzyme (50 U/ml) or buffer control was added in a 1:1 volume ratio for final concentrations of 25 μM Z-DEVD-coelenterazine h derivative substrate, 25 U/ml caspase-3 and 3.25 ug/ml luciferase. Luminescence was measured over 110 minutes.

[4] = test system: Jurkat cells; assay: Measuring metabolically active cells using quinone coelenterazine derivatives; assay type: cell-based; details: two-fold serial dilutions of Jurkat cells; stocks 50 μM (40) and 100 μM (50); 30 minutes at 37° C.; Oplophorus luciferase detection reagent
From the text: Viable cells maintain a metabolically active state that is inevitably lost when cells are damaged. Upon entering the living cells, the quinone coelenterazine is reduced to a coelenterazine derivative that is a substrate for a coelenterazine-utilizing luciferase, e.g., Oplophorus or Renilla luciferase. Conversion of the quinone coelenterazine is proportional to the number of metabolically active cells, and therefore can be measured quantitatively by monitoring light produced by luciferase reaction.
Two-fold serial dilutions of Jurkat cells were prepared in PBS, and 50 μl per well transferred to wells in 96-well plates. Compounds 40 and 50 were diluted in PBS to make 50 μM and 100 μM stocks, respectively. 10 μl of prepared compound stocks were added to the cells, and the cells were placed into 37° C., 5% CO2 incubator. Following 30 minutes incubation, the cells were removed from incubator, cooled at room temperature for 10 minutes, and 50 μl of Oplophorus luciferase detection reagent added directly to the wells. The samples were mixed, incubated at room temperature for 20 minutes, and luminescence measured.

## z-DEVD-coelenterazine-h [Compound 21]
[1]; 5.0 min
  luminescence, − caspase: 26,023 RLU
[1]; 15.3 min
  luminescence, − caspase: 7,707 RLU
[1]; 29.9 min
  luminescence, − caspase: 4,013 RLU
[1]; 60.9 min
  luminescence, − caspase: 2,305 RLU
[1]; 190.3 min
  luminescence, − caspase: 1,155 RLU
[2]; 5.0 min
  luminescence, + caspase: 25,411 RLU
[2]; 15.3 min
  luminescence, + caspase: 36,906 RLU
[2]; 29.9 min
  luminescence, + caspase: 41,854 RLU
[2]; 60.9 min
  luminescence, + caspase: 43,370 RLU
[2]; 190.3 min
  luminescence, + caspase: 42,448 RLU
[3]
  increase in luminescence relative to control samples that did not contain caspase: one hundred-fold increase

## CC1=C(C)C(=O)C(C(C)(C)CC(=O)N(C)CCN(C)C(=O)Oc2c(Cc3ccccc3)nc3c(Cc4ccccc4)nc(-c4ccccc4)cn23)=C(C)C1=O [Compound 50]
[4]
  relationship between luminescence and cell number: linear correlation between cell number and luminescence

## CC1=C(C)C(=O)C(C(C)(C)CC(=O)N(C)CCN(C)C(=O)Oc2c(Cc3ccco3)nc3c(Cc4ccccc4)nc(-c4ccccc4)cn23)=C(C)C1=O [Compound 40]
[4]
  relationship between luminescence and cell number: linear correlation between cell number and luminescence
